{"source": "ChEMBL document CHEMBL1201862", "about": "“PubChem BioAssay data set” (2004)", "key": {"Cytochrome P450 2D6": {"molecular_target": "Cytochrome P450 2D6 (Homo sapiens, UniProt P10635)", "sequence (P10635 whole entry)": "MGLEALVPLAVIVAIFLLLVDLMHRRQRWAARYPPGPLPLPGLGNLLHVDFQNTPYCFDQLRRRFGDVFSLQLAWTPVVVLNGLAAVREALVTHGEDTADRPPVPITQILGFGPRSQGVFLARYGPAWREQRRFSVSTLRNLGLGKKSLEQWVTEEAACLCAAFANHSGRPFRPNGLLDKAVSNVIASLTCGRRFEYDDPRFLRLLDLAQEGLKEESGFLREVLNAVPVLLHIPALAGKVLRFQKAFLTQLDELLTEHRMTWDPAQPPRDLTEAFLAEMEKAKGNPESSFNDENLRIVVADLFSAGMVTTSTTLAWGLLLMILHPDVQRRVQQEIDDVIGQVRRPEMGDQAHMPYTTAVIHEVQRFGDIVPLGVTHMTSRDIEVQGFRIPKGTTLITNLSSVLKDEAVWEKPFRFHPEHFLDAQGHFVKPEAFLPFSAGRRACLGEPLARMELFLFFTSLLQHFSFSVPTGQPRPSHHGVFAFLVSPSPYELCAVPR"}, "Cytochrome P450 1A2": {"molecular_target": "T1, Cytochrome P450 1A2 (Homo sapiens, UniProt P05177)", "T1 sequence (P05177 whole entry)": "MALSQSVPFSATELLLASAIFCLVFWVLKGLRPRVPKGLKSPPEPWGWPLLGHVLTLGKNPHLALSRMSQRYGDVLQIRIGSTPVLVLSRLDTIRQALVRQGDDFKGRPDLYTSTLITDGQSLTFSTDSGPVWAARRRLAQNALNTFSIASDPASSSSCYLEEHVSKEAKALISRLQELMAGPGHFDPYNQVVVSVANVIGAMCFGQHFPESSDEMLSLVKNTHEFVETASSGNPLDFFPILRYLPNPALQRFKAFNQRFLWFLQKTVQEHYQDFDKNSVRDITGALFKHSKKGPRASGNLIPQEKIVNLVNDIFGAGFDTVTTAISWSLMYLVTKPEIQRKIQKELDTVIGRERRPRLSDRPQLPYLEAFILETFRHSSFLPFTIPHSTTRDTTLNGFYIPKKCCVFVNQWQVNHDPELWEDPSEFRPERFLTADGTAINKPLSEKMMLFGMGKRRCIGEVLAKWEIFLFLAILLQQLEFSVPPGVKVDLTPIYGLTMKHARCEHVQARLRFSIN"}, "[1]": {"molecular_target": "Sphingosine 1-phosphate receptor 5 (Homo sapiens, UniProt Q9H228)", "sequence (Q9H228 whole entry)": "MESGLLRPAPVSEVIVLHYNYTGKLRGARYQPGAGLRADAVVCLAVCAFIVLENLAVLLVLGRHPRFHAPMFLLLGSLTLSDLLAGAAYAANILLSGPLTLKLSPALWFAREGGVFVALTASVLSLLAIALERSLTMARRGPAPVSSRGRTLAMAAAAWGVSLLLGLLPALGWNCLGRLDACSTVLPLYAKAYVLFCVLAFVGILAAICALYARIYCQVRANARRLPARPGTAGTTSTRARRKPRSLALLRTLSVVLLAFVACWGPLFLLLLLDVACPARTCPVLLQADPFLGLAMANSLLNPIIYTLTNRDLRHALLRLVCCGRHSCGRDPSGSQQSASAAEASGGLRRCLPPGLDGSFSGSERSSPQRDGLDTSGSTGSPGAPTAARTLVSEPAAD", "test": "Late stage counterscreen assay for S1P4 antagonists: Fluorescence dose response cell-based screening assay for antagonists of the Sphingosine 1-Phosphate Receptor 5 (S1P5). [Related pubchem assays (depositor defined):AID1510, AID1524, AID1692, AID1853, AID2332, AID489009, AID489017]", "format": "functional"}, "[2]": {"molecular_target": "T2, Sphingosine 1-phosphate receptor 1 (Homo sapiens, UniProt P21453)", "T2 sequence (P21453 whole entry)": "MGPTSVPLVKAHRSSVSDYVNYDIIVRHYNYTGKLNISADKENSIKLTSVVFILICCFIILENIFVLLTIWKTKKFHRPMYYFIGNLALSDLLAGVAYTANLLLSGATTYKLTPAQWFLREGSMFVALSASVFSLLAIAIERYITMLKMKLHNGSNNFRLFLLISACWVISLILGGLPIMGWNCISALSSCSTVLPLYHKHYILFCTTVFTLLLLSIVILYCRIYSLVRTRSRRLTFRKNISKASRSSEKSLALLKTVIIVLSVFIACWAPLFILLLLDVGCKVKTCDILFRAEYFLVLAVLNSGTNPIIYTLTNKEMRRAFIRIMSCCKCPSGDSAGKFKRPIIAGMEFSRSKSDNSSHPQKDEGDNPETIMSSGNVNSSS", "format": "functional"}, "Integrin alpha-4": {"molecular_target": "Integrin alpha-4 (Homo sapiens, UniProt P13612)", "sequence (P13612 whole entry)": "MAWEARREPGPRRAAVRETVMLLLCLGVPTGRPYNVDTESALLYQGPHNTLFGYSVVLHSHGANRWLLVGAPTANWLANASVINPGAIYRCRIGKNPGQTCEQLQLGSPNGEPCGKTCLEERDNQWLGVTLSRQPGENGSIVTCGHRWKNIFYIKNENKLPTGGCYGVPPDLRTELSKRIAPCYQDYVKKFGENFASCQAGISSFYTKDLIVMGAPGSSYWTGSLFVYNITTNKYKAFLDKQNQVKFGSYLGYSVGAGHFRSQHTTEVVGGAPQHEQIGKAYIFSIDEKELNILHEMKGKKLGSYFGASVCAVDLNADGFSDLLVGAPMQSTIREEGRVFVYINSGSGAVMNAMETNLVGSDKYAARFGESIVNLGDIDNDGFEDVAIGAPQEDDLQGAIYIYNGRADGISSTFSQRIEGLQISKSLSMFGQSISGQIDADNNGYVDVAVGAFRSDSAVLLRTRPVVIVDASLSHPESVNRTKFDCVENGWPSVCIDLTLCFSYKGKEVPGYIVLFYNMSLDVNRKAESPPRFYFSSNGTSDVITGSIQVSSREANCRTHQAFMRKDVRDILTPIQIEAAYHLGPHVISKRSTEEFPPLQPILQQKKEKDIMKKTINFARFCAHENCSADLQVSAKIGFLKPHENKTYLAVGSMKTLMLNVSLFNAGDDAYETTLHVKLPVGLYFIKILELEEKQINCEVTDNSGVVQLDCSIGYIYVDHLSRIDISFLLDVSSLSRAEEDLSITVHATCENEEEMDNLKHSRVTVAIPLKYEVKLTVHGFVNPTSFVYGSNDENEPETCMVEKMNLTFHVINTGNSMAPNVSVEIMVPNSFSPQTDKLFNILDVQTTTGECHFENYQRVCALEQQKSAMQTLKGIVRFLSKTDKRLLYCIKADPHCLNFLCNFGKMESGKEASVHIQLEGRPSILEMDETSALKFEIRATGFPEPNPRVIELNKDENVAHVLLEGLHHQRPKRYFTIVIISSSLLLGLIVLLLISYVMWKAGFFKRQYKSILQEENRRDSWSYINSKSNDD", "test": "allosteric modulators of alpha4 integrin VLA-4 – cell-based, LIBS antibody binding, flow cytometry, SAR follow-up (AID 488791)", "format": "functional"}, "[3]": {"test": "viability of PTEN-deleted HCT116 cells – cell-based, HCT116 PTEN knockout, dose response (AID 1047);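 further: HCT116 colon tumor cells with PTEN knocked out; cells exposed to compound for 60 hours before readout; potency for loss of cell viability measured by luminescence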", "format": "functional"}, "[4]": {"molecular_target": "Sphingosine 1-phosphate receptor 3 (Homo sapiens, UniProt Q99500)", "sequence (Q99500 whole entry)": "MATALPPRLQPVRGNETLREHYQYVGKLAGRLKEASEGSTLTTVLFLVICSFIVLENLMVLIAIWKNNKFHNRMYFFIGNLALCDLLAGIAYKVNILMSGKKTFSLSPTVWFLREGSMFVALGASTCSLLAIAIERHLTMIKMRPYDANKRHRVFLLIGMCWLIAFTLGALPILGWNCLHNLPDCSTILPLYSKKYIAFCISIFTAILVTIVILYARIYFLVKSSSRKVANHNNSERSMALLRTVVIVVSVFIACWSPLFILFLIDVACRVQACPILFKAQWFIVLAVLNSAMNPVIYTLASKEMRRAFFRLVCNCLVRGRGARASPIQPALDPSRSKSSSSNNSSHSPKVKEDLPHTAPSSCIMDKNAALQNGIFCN", "test": "Late stage counterscreen assay for S1P4 antagonists: Fluorescence dose response cell-based screening assay for antagonists of the Sphingosine 1-Phosphate Receptor 3 (S1P3). [Related pubchem assays (depositor defined):AID1510, AID1524, AID1692, AID1853, AID2332, AID489009, AID489017]", "format": "functional"}, "[5]": {"molecular_target": "Sphingosine 1-phosphate receptor 2 (Homo sapiens, UniProt O95136)", "sequence (O95136 whole entry)": "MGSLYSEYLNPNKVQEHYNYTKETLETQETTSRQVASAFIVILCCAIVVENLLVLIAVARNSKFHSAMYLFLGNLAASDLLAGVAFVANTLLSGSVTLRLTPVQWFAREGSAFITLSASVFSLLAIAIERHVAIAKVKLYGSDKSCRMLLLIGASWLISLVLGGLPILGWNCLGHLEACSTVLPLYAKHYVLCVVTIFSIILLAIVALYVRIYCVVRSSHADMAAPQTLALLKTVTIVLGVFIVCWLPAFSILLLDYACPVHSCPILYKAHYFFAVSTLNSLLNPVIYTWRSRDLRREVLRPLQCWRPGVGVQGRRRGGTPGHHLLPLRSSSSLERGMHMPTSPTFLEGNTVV", "test": "Late stage counterscreen assay for S1P4 antagonists: Fluorescence dose response cell-based screening assay for antagonists of the Sphingosine 1-Phosphate Receptor 2 (S1P2). [Related pubchem assays (depositor defined):AID1510, AID1524, AID1692, AID1853, AID2332, AID489009, AID489017]", "format": "functional"}, "[6]": {"test": "viability of HCT116 lacking mutant beta-catenin – cell-based, human colon tumor, dose response (AID 1045);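 further: HCT116 colon tumor cells with beta catenin knocked out; cells exposed to compound for 60 hours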", "format": "functional"}, "[7]": {"molecular_target": "T3, Heat shock factor protein 1 (Mus musculus, UniProt P38532)", "T3 sequence (P38532 whole entry)": "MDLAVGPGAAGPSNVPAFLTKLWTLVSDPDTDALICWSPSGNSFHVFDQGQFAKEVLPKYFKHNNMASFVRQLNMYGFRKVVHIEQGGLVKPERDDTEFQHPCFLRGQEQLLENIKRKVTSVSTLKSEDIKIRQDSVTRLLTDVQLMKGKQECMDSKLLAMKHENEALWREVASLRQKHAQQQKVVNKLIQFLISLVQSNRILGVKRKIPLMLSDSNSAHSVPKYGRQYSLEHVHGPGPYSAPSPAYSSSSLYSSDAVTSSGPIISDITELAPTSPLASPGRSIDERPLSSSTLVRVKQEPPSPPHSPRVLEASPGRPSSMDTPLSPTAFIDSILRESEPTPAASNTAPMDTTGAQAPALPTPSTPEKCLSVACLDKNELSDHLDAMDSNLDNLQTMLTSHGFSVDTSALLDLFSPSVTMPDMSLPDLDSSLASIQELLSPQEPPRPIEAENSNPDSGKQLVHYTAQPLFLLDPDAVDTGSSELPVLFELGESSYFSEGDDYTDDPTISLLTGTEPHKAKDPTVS", "test": "decrease of HSF1-responsive luciferase luminescence – cell-based, NIH3T3, dose retest, confirmation (AID 2382);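 further: NIH3T3 fibroblasts with HSF1-driven luciferase reporter stressed by proteasome inhibitor MG132; luminescence from HSF1-driven luciferase expression after 8 hours of MG132 stress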", "format": "functional"}, "[8]": {"molecular_target": "T4, Sphingosine 1-phosphate receptor 4 (Homo sapiens, UniProt O95977)", "T4 sequence (O95977 whole entry)": "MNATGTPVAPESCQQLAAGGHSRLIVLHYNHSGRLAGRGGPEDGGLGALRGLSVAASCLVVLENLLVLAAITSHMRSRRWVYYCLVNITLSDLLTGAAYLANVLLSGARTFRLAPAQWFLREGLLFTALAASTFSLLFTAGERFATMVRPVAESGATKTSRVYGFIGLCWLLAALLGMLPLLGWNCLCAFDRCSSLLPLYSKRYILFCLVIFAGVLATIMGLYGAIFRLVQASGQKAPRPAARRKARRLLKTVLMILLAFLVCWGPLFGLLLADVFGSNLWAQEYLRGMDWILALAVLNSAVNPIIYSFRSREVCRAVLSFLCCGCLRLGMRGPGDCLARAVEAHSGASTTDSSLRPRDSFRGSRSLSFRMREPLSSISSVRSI", "test": "Fluorescence dose response cell-based high throughput screening assay for antagonists of the Sphingosine 1-Phosphate Receptor 4 (S1P4). [Related pubchem assays: 1524 (Confirmation in triplicates.), 1510 (Primary screen.)]", "format": "functional"}, "INS1": {"system": "INS1", "test": "INS-1E survival protection against cytokine death – cell-based, luminescence, retest, dose response (AID 449756);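 further: cell death triggered by IL-1 beta plus TNF-alpha plus IFN-gamma mixture; protective hits raise ATP signal compared with cytokine alone wells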", "format": "functional", "settings": "Rattus norvegicus"}, "[9]": {"molecular_target": "G-protein coupled receptor 55 (Homo sapiens, UniProt Q9Y2T6)", "sequence (Q9Y2T6 whole entry)": "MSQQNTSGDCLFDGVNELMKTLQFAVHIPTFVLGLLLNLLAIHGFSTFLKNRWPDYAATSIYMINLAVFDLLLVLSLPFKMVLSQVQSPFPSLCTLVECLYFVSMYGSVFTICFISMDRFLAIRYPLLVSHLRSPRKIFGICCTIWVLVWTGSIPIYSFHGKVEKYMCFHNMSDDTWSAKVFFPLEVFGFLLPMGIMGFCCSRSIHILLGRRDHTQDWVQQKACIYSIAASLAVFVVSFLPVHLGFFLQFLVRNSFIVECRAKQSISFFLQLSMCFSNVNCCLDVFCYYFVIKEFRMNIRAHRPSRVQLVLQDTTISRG", "test": "selective activators of receptor GPR55 – imaging, U2OS cells, beta-arrestin-GFP redistribution, primary screen (AID 1961)", "format": "functional"}, "[10]": {"molecular_target": "T2, Sphingosine 1-phosphate receptor 1", "test": "Late stage counterscreen assay for S1P4 antagonists: Fluorescence dose response cell-based screening assay for antagonists of the Sphingosine 1-Phosphate Receptor 1 (S1P1). [Related pubchem assays (depositor defined):AID1510, AID1524, AID1692, AID1853, AID2332, AID489009, AID489017]", "format": "functional"}, "[11]": {"molecular_target": "T4, Sphingosine 1-phosphate receptor 4", "test": "Late stage fluorescence dose response cell-based screening assay for antagonists of the Sphingosine 1-Phosphate Receptor 4 (S1P4). [Related pubchem assays: 1524 (Confirmation screen (S1P4 antagonists).), 1510 (Primary screen (S1P4 antagonists).), 1853 (Summary AID (S1P4 antagonists).), 1692 (Dose response screen (S1P4 antagonists).)]", "format": "functional"}, "SUMO E1/E2": {"molecular_target": "SUMO E1/E2 (Homo sapiens, UniProt P63279+Q9UBE0+Q9UBT2)", "sequence (Q9UBE0 whole entry)": "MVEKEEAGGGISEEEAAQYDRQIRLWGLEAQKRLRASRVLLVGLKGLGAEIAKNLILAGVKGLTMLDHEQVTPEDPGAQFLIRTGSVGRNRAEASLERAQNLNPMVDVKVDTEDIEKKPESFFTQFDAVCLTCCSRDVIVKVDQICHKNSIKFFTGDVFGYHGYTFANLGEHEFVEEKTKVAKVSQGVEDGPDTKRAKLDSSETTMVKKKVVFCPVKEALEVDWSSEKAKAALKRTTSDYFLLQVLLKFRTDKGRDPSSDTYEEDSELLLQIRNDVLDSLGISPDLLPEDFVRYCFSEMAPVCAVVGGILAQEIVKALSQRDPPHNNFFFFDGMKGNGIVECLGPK", "sequence (Q9UBT2 whole entry)": "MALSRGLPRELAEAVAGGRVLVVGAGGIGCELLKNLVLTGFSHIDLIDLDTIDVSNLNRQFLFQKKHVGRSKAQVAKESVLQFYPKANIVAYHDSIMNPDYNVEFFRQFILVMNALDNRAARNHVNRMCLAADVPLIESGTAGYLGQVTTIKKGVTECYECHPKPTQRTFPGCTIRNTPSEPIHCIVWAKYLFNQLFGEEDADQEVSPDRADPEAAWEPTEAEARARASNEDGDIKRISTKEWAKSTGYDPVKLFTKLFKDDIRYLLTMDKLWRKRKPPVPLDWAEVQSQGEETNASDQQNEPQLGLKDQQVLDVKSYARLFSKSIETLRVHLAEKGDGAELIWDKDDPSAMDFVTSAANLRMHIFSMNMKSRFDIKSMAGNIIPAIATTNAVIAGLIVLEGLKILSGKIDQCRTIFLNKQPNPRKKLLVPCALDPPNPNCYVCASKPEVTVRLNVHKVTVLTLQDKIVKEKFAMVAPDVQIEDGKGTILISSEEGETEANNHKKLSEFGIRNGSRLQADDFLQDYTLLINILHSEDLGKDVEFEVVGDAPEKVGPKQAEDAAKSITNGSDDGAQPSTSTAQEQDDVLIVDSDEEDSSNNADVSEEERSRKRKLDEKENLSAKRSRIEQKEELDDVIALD", "sequence (P63279 whole entry)": "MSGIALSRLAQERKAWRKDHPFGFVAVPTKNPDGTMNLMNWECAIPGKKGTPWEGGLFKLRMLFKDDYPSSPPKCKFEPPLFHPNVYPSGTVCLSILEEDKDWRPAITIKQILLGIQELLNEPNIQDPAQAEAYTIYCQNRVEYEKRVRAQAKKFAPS", "test": "SAR analysis of SUMOylation using HTRF in an in-Vitro dose response assay. [Related pubchem assays (depositor defined):AID2006, AID2011, AID2018, AID2069, AID2658]", "format": "functional"}, "[12]": {"molecular_target": "UDP-galactopyranose mutase (Mycobacterium tuberculosis, UniProt P9WIQ1)", "sequence (P9WIQ1 whole entry)": "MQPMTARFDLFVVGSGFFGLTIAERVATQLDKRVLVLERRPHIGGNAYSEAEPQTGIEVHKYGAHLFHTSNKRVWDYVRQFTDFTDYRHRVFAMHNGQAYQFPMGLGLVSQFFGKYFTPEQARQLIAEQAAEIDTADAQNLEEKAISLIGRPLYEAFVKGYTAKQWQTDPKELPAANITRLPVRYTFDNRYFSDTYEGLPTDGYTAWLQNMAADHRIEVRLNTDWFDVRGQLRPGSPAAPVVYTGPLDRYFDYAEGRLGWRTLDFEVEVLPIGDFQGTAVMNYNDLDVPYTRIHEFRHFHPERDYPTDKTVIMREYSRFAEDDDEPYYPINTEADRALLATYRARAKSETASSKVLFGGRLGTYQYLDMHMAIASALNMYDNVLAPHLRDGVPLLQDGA", "test": "Inhibitors of Mycobacterium tuberculosis UDP-galactopyranose mutase (UGM) enzyme Measured in Biochemical System Using Plate Reader - 2105-02_Inhibitor_Dose_CherryPick_Activity. [Related pubchem assays (depositor defined):AID504439]"}, "[13]": {"molecular_target": "T5, RNA-binding protein pos-1 (Caenorhabditis elegans, UniProt G5EF15)", "T5 sequence (G5EF15 whole entry)": "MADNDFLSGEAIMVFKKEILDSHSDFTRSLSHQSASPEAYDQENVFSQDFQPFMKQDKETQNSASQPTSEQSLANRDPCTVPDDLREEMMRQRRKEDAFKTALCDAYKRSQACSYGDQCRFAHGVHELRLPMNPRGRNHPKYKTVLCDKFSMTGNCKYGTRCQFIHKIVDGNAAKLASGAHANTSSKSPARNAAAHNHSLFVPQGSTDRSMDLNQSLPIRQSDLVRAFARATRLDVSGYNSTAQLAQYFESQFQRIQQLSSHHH", "test": "disruptors of C. elegans POS-1 RNA interaction – biochemical, fluorescence polarization, dose response (AID 1964);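 further: purified POS-1 fused to maltose binding protein made in E. coli; potency of compounds blocking POS-1 binding to fluorescent RNA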"}}, "note": "Calls of active or inactive are those of the source."}
{"smiles": "COc1ccccc1CN1CC2(CCN(S(C)(=O)=O)CC2)C1", "values": [{"measurement": "AC50", "setting": "Cytochrome P450 2D6", "result": "inconclusive"}, {"measurement": "AC50", "setting": "Cytochrome P450 1A2", "result": "inconclusive"}]}
{"smiles": "CCOC(=O)/C(=C\\c1ccc(OC(F)F)cc1)C1=Nn2c(nnc2-c2ccc(Cl)cc2)SC1", "values": [{"measurement": "IC50", "setting": "[1]", "result": "0.034 µM (active)"}, {"measurement": "IC50", "setting": "[2]", "result": "6.1 µM (active)"}, {"measurement": "EC50", "setting": "Integrin alpha-4", "result": "11.8 µM (active)"}, {"measurement": "EC50", "setting": "[3]", "result": "10.2 µM (active)"}, {"measurement": "IC50", "setting": "[4]", "result": "0.494 µM (active)"}, {"measurement": "IC50", "setting": "[5]", "result": "0.614 µM (active)"}, {"measurement": "EC50", "setting": "[6]", "result": "9.67 µM (active)"}, {"measurement": "EC50", "setting": "[7]", "result": "6.62 µM (active)"}, {"measurement": "IC50", "setting": "[8]", "result": "0.168 µM (active)"}, {"measurement": "AC50", "setting": "INS1", "result": "4.22 µM (active)"}, {"measurement": "EC50", "setting": "[9]", "result": "> 32 µM (inactive)"}, {"measurement": "IC50", "setting": "[10]", "result": "0.351 µM (active)"}, {"measurement": "IC50", "setting": "[11]", "result": "0.342 µM (active)"}]}
{"smiles": "S=c1[nH]nc(-c2cc(-c3ccccc3)[nH]n2)n1N=Cc1ccc(Cl)c(Cl)c1", "values": [{"measurement": "IC50", "setting": "SUMO E1/E2", "result": "> 100 µM (inactive)"}]}
{"smiles": "COCCNC(=O)Cn1cc(/C=C2\\C(=O)NC(=O)N(c3ccccc3F)C2=O)c2ccccc21", "values": [{"measurement": "AC50", "setting": "[12]", "result": "32.1 µM (active)"}, {"measurement": "EC50", "setting": "[13]", "result": "6.32 µM (active)"}]}
